Source: ChEMBL document CHEMBL1201862, “PubChem BioAssay data set” (2004)
The source made the active and inactive calls.

Tests used:
[1] = target: FAD-linked sulfhydryl oxidase ALR (Homo sapiens, UniProt P55789); experiment: ALR-catalysed DTT oxidation blockers – biochemical, H2O2 detection, luminescence, cherry-pick, dose response (AID 493248)
[2] = system: Streptococcus sp. 'group A'; experiment: Streptococcus pyogenes SK(-)GAS viability under kanamycin – luminescence, BacTiterGlo, confirmation, counter-screen for streptokinase expression inhibitor project, dose response (AID 1900); format: functional, organism-based
Streptokinase A = target: T1, Streptokinase A (Streptococcus pyogenes serotype M1, UniProt P10520); experiment: viability-normalized secreted streptokinase activity reduction – plasminogen activation absorbance, OD405, dose response (AID 1914); format: functional, Streptococcus pyogenes M1 GAS;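 further: secreted streptokinase activity via plasminogen activation per viability signal from cell pellet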
T1 sequence (P10520 whole entry): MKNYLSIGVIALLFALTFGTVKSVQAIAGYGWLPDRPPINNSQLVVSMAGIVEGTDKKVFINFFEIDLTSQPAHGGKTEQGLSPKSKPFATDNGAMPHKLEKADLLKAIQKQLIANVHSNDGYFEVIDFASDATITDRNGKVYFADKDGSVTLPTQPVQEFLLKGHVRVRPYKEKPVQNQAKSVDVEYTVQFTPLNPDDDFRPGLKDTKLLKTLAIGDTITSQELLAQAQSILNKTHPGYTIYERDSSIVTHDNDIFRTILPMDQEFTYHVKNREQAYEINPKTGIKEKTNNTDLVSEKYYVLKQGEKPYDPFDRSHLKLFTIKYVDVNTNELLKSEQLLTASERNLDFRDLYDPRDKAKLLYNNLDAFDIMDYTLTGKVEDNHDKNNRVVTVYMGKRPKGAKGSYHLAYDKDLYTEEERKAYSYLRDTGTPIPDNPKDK

Streptococcus = experiment: GAS UMAA2166 growth inhibition – luminescence, BacTiterGlo, counter-screen for streptokinase expression inhibitor project, dose response (AID 1915); format: functional, organism-based;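 further: potency for reduction of bacterial viability or growth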
[3] = target: T2, Corticotropin-releasing factor receptor 2/Corticotropin-releasing factor-binding protein (Homo sapiens, UniProt P24387+Q13324); experiment: Dose Response confirmation of uHTS hits for small molecule antagonists of the CRF-binding protein and CRF-R2 receptor complex.; format: functional; conditions: read-out: IC50_Mean
T2 sequence (Q13324 whole entry): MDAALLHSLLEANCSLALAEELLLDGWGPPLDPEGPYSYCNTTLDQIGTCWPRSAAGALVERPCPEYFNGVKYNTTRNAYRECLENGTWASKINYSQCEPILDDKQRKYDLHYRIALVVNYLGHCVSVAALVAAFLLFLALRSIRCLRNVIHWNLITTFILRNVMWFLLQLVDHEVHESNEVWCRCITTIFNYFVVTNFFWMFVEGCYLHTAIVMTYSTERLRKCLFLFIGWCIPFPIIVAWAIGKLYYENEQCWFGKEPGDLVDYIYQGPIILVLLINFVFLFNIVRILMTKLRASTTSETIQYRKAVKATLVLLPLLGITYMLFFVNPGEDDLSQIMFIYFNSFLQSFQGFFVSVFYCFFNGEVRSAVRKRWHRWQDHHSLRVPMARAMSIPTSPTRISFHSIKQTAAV
T2 sequence (P24387 whole entry): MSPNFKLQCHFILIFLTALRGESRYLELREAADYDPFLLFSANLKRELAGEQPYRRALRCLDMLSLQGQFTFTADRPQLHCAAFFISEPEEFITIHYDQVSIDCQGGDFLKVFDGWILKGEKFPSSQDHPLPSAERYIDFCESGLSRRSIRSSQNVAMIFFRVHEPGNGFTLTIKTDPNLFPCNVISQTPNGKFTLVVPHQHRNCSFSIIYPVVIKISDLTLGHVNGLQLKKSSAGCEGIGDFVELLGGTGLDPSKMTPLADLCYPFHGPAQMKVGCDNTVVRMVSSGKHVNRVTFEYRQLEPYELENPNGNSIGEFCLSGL

[4] = target: T2, Corticotropin-releasing factor receptor 2/Corticotropin-releasing factor-binding protein; experiment: activators of CRF receptor 2 with binding protein – uHTS hits, confirmation (AID 602473); format: functional; conditions: read-out: EC50_Mean
Cytochrome P450 2C19 = Cytochrome P450 2C19 (Homo sapiens, UniProt P33261); experiment: Cytochrome panel assay with activity outcomes. Panel member name: p450-cyp2c19 Compounds with AC50 equal or less than 10 uM are considered active; format: functional
Cytochrome P450 3A4 = Cytochrome P450 3A4 (Homo sapiens, UniProt P08684);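 further: CYP3A4 tested as one member of a cytochrome P450 panel screen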
Cytochrome P450 2C9 = Cytochrome P450 2C9 (Homo sapiens, UniProt P11712)
Cytochrome P450 2D6 = Cytochrome P450 2D6 (Homo sapiens, UniProt P10635);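 further: CYP2D6 member of a cytochrome P450 panel assay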
Cytochrome P450 2D6, sequence (P10635 whole entry): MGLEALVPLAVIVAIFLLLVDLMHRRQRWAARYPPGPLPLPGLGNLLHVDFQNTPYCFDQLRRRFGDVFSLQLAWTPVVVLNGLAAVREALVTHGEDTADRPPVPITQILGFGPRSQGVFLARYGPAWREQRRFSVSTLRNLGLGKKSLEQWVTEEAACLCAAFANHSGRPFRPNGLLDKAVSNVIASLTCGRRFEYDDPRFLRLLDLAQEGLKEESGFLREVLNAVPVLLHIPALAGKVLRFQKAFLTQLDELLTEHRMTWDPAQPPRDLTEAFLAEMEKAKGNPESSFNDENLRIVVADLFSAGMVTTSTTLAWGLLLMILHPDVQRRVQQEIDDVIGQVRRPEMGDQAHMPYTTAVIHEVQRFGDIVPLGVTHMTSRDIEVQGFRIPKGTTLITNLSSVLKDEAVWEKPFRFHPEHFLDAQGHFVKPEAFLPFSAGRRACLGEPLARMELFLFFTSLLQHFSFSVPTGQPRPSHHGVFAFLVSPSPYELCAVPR

FAD-linked sulfhydryl oxidase ALR, sequence (P55789 whole entry): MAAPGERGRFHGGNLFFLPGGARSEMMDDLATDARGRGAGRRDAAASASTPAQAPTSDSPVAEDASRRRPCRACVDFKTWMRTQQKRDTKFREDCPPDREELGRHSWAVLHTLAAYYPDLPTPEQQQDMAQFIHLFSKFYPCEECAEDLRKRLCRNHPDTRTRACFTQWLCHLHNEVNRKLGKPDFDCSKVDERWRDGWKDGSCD
Cytochrome P450 2C9, sequence (P11712 whole entry): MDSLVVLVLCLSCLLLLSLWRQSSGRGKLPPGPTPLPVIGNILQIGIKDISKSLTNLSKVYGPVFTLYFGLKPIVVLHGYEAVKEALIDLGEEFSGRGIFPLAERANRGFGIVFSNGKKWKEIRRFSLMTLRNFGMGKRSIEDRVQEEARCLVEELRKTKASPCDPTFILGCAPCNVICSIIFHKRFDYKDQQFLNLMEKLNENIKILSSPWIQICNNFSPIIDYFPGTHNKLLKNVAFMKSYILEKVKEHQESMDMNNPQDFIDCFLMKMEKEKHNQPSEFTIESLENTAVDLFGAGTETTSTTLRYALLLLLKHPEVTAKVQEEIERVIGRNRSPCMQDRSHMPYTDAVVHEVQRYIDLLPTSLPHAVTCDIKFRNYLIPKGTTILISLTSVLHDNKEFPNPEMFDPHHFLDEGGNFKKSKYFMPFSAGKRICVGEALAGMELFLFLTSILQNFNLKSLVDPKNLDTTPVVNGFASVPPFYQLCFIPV
Cytochrome P450 3A4, sequence (P08684 whole entry): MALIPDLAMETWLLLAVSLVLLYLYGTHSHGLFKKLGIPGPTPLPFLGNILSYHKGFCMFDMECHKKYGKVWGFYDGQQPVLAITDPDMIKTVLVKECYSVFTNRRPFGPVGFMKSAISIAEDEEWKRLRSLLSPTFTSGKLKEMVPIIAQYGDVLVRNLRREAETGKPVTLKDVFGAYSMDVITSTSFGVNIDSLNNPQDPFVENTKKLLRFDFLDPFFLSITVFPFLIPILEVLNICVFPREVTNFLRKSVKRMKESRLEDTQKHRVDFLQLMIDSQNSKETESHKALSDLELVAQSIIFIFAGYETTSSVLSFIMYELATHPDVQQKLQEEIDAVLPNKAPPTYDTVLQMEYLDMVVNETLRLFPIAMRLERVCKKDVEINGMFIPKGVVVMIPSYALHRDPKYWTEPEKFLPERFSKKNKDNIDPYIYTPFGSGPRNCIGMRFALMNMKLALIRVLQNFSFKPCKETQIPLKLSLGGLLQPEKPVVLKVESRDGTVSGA
Cytochrome P450 2C19, sequence (P33261 whole entry): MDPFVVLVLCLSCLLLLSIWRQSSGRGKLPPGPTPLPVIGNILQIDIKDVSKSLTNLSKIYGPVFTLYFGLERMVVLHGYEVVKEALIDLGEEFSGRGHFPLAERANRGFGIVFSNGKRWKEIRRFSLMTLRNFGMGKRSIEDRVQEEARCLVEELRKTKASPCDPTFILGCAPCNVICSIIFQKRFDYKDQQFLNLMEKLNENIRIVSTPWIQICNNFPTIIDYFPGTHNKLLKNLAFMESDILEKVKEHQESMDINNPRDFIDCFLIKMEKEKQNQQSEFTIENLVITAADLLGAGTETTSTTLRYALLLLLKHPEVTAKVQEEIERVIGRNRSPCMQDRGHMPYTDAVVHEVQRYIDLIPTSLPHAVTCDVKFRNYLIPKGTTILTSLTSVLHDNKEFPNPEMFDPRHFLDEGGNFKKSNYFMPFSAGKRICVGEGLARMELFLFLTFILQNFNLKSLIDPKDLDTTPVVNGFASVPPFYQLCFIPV

With COc1ccc(CC(=O)N/N=C(\C)CC(=O)Nc2ccc(N(C)C)cc2)cc1 the AC50 [1] was 2.04 µM (active).

Cc1cccc(OCc2nnc(S)n2-c2ccccc2)c1 was tested, and the AC50 [1] was 1.6 µM (active).

Oc1cccc2ccc(/C=C/c3c(F)cccc3Cl)nc12 was tested, and the EC50 [2] was 0.589 µM (active), the EC50 (Streptokinase A) was > 150 µM (not active) and the EC50 (Streptococcus) was 32.2 µM (active).

In the case of Cc1ccc(C)c(NC(=O)Cn2cnc3c(oc4ccccc43)c2=O)c1, the IC50 [3] is reported as > 47.1 µM (inactive) and the EC50 [4] is reported as > 53 µM (inactive).

With COc1ccccc1CNC(=O)C1CC(=O)N(C2CCCC2)C1 (stereo not given) the AC50 (Cytochrome P450 2C19; read-out: AC50) was 28.2 µM (inconclusive), the AC50 (Cytochrome P450 3A4) was 22.4 µM (inconclusive) and the AC50 (Cytochrome P450 2C9) was 0.0224 µM (inconclusive).

In the case of CCN(CC)C(=O)c1csc(Nc2ccc(C)cc2)n1, the AC50 [1] is reported as 5.19 µM (active).

In the case of CN(C)c1ccc(/C=N/NC(=O)c2ccc3c(c2)OCO3)cc1, the AC50 [1] is reported as 4.72 µM (active).

In the case of CC(C)CN(C(=O)COc1ccc(-c2nnco2)cc1)C1CCS(=O)(=O)C1 (stereo not given), the EC50 [2] is reported as > 150 µM (not active), the EC50 (Streptokinase A) is reported as > 150 µM (not active) and the EC50 (Streptococcus) is reported as > 150 µM (not active).

With CNS(=O)(=O)c1cnccc1N1CCN(c2cccc(C)c2)CC1 the AC50 [1] was < 0.005 µM (active).

In the case of CCOC(=O)C1=C(N)Oc2ccc3ccccc3c2C1c1ccc(O)cc1 (stereo not given), the EC50 [2] is reported as 8.94 µM (active), the EC50 (Streptokinase A) is reported as 11.5 µM (active) and the EC50 (Streptococcus) is reported as > 150 µM (not active).

In the case of Cc1cccc(-n2c(-c3ccoc3C)n[nH]c2=S)c1, the AC50 [1] is reported as 7.34 µM (active).

CC(C)C(=O)Nc1ccc(C(=O)NNC(=O)C(c2ccccc2)c2ccccc2)cc1 was tested, and the AC50 (Cytochrome P450 3A4) was 4.47 µM (inconclusive) and the AC50 (Cytochrome P450 2C9) was 5.01 µM (inconclusive).

In the case of CCOc1cc(CNc2ccc(OC)cc2)cc(Br)c1OCC(=O)NC(C)(C)C, the AC50 (Cytochrome P450 2C9) is reported as 7.08 µM (inconclusive).

CCC1=C(C[C@H]2NCCc3cc(OC)c(OC)cc32)C[C@H]2c3ccccc3CCN2C1 was tested, and the AC50 (Cytochrome P450 3A4) was 3.16 µM (inconclusive) and the AC50 (Cytochrome P450 2C9) was 3.16 µM (inconclusive).

In the case of Sc1nnc(-c2ccccc2)c(-c2ccccc2)n1, the AC50 [1] is reported as 0.567 µM (active).

For CC/C(=N\NC(=S)Nc1cc(C)ccc1C)c1ccc(OC(F)F)cc1, the EC50 [2] was 6.27 µM (active), the EC50 (Streptokinase A) was > 150 µM (not active) and the EC50 (Streptococcus) was 11.8 µM (active).

In the case of Cc1nn(CC(O)CN2c3ccccc3Sc3ccccc32)c(C)c1Br (stereo not given), the EC50 [2] is reported as 3.47 µM (active), the EC50 (Streptokinase A) is reported as 8 µM (active) and the EC50 (Streptococcus) is reported as 21.4 µM (active).

In the case of C[N+](C)(C)CCC(=O)c1cccc2ccccc12, the AC50 (Cytochrome P450 2D6) is reported as 10 µM (inconclusive), the AC50 (Cytochrome P450 3A4) is reported as 0.2 µM (inconclusive) and the AC50 (Cytochrome P450 2C9) is reported as 12.6 µM (inconclusive).

In the case of CCN(CC)CCCNC(=O)C1CCC(=O)N(c2ccc(OC)cc2)C1c1ccc(F)cc1 (stereo not given), the AC50 (Cytochrome P450 2C19) is reported as “inconclusive” and the AC50 (Cytochrome P450 2C9) is reported as 39.8 µM (inconclusive).

In the case of CCC1C(=O)N=C(SCC(=O)Nc2ccc(C(=O)OC)cc2)NC1=O (stereo not given), the AC50 (Cytochrome P450 2C9) is reported as 31.6 µM (inconclusive).

With COc1ccc(Cc2nnc(NC(=O)c3ccc(Cl)c([N+](=O)[O-])c3)s2)cc1 the AC50 (Cytochrome P450 3A4) was 0.631 µM (inconclusive) and the AC50 (Cytochrome P450 2C9) was 1.41 µM (inconclusive).

Cc1nnc(O)c2c(NC(=O)CSc3nnnn3-c3ccccc3)oc(C)c12 was tested, and the EC50 [2] was > 150 µM (not active), the EC50 (Streptokinase A) was > 150 µM (not active) and the EC50 (Streptococcus) was > 150 µM (not active).

CSc1nc2n(n1)C(c1cccc(F)c1)C(C(=O)Nc1ccc(C)cc1C)=C(C)N2 (stereo not given) was tested, and the AC50 (Cytochrome P450 3A4) was 0.708 µM (inconclusive) and the AC50 (Cytochrome P450 2C9) was 3.98 µM (inconclusive).
